Test results as given in patent publication US8796289B2 (AbbVie Inc., priority 2011, dated 2014).

The molecules below were run against GST-tagged-Wee1 kinase (Homo sapiens, UniProt P30291) (assay: Wee1 time-resolved fluorescence equilibrium binding assay (displacement of Oregon Green-labeled ATP-competitive kinase probe)).
Procedure: Wee1 kinase was assayed using a time-resolved fluorescence equilibrium binding assay monitoring displacement of a rapidly reversible Oregon Green-labeled ATP-competitive kinase probe (N-(2-(2-(2-(4-(4-(5-chloro-4-(2-(1-hydroxycyclobutyl)thiazol-5-yl)-1H-pyrrolo[2,3-b]pyridin-2-yl)phenyl)piperazin-1-yl)ethoxy)ethoxy)ethyl)-2′,7′-difluoro-3′,6′-dihydroxy-3-oxo-3H-spiro[isobenzofuran-1,9′-xanthene]-5-carboxamide) by competitive Wee1 inhibitors.

GST-tagged-Wee1 kinase, sequence (P30291 whole entry): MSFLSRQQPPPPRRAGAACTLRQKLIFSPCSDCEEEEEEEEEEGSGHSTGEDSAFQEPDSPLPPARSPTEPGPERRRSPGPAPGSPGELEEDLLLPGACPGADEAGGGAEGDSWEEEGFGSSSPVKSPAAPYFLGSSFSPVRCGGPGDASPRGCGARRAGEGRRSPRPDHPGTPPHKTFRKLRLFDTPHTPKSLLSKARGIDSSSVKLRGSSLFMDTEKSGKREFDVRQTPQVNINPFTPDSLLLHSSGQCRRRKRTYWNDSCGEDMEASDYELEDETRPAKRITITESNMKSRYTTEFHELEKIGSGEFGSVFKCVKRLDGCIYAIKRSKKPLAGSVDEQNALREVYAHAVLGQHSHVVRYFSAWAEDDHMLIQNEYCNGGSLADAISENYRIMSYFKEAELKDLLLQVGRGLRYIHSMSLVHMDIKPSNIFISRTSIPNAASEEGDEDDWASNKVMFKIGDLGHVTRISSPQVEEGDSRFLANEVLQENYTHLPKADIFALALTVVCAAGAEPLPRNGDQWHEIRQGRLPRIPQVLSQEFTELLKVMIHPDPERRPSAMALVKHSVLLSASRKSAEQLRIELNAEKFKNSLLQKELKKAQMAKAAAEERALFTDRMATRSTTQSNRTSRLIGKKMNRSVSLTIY

Row | Structure (SMILES) | Ki
1 | CN1CCCC(n2nc(-c3ccccn3)c3nc(Nc4ccc5c(c4)CNCC5(C)C)ncc3c2=O)C1 (stereo not shown) [Example 332, 2-[(4,4-dimethyl-1,2,3,4-tetrahydroisoquinolin-7-yl)amino]-6-(1-methylpiperidin-3-yl)-8-(pyridin-2-yl)pyrimido[4,5-d]pyridazin-5(6H)-one] | 490 nM
2 | CC1CCCC(C)C1n1nc(-c2ccccn2)c2nc(Nc3ccc(N4CCNCC4)cc3)ncc2c1=O (stereo not shown) [Example 333, 6-(2,6-dimethylcyclohexyl)-2-{[4-(piperazin-1-yl)phenyl]amino}-8-(pyridin-2-yl)pyrimido[4,5-d]pyridazin-5(6H)-one] | 770 nM
3 | CN1CCCC(n2nc(-c3ccccn3)c3nc(Nc4ccc(N5CCNCC5)cc4)ncc3c2=O)C1 (stereo not shown) [Example 334, 6-(1-methylpiperidin-3-yl)-2-{[4-(piperazin-1-yl)phenyl]amino}-8-(pyridin-2-yl)pyrimido[4,5-d]pyridazin-5(6H)-one] | 640 nM
4 | CC(C)n1cc(-c2nn(-c3c(F)cccc3Cl)c(=O)c3cnc(Nc4ccc5c(c4)CNCC54CC4)nc23)cn1 [Example 335, 6-(2-chloro-6-fluorophenyl)-2-(2′,3′-dihydro-1′H-spiro[cyclopropane-1,4′-isoquinolin]-7′-ylamino)-8-[1-(propan-2-yl)-1H-pyrazol-4-yl]pyrimido[4,5-d]pyridazin-5(6H)-one] | 0.21 nM
5 | CN1CCN(c2ccc(Nc3ncc4c(=O)n(-c5ncccc5Cl)nc(-c5ccncc5)c4n3)cc2)CC1 [Example 336, 6-(3-chloropyridin-2-yl)-2-{[4-(4-methylpiperazin-1-yl)phenyl]amino}-8-(pyridin-4-yl)pyrimido[4,5-d]pyridazin-5(6H)-one] | 0.49 nM
6 | CC(C)n1cc(-c2nn(-c3c(Cl)cccc3Cl)c(=O)c3cnc(Nc4ccc5c(c4)CNCC54CC4)nc23)cn1 [Example 337, 6-(2,6-dichlorophenyl)-2-(2′,3′-dihydro-1′H-spiro[cyclopropane-1,4′-isoquinolin]-7′-ylamino)-8-[1-(propan-2-yl)-1H-pyrazol-4-yl]pyrimido[4,5-d]pyridazin-5(6H)-one] | 0.22 nM
7 | CN1CCN(c2ccc(Nc3ncc4c(=O)n(-c5c(Cl)cccc5Cl)nc(-c5cn(C)cn5)c4n3)cc2)CC1 [Example 338, 6-(2,6-dichlorophenyl)-8-(1-methyl-1H-imidazol-4-yl)-2-{[4-(4-methylpiperazin-1-yl)phenyl]amino}pyrimido[4,5-d]pyridazin-5(6H)-one] | 0.72 nM
8 | CN1Cc2cc(Nc3ncc4c(=O)n(-c5c(Cl)cccc5Cl)nc(-c5cn(C)cn5)c4n3)ccc2C2(CC2)C1 [Example 339, 6-(2,6-dichlorophenyl)-2-[(2′-methyl-2′,3′-dihydro-1′H-spiro[cyclopropane-1,4′-isoquinolin]-7′-yl)amino]-8-(1-methyl-1H-imidazol-4-yl)pyrimido[4,5-d]pyridazin-5(6H)-one] | 0.71 nM
9 | Cn1cnc(-c2nn(-c3c(Cl)cccc3Cl)c(=O)c3cnc(Nc4ccc(N5CCNCC5)cc4)nc23)c1 [Example 340, 6-(2,6-dichlorophenyl)-8-(1-methyl-1H-imidazol-4-yl)-2-{[4-(piperazin-1-yl)phenyl]amino}pyrimido[4,5-d]pyridazin-5(6H)-one] | 0.32 nM
10 | Cn1cnc(-c2nn(-c3c(Cl)cccc3Cl)c(=O)c3cnc(Nc4ccc5c(c4)CNCC54CC4)nc23)c1 [Example 341, 6-(2,6-dichlorophenyl)-2-(2′,3′-dihydro-1′H-spiro[cyclopropane-1,4′-isoquinolin]-7′-ylamino)-8-(1-methyl-1H-imidazol-4-yl)pyrimido[4,5-d]pyridazin-5(6H)-one] | 1 nM
11 | Cn1cnc(-c2nn(-c3c(Cl)cccc3Cl)c(=O)c3cnc(Nc4ccc5c(c4)CNCC5)nc23)c1 [Example 342, 6-(2,6-dichlorophenyl)-8-(1-methyl-1H-imidazol-4-yl)-2-(1,2,3,4-tetrahydroisoquinolin-7-ylamino)pyrimido[4,5-d]pyridazin-5(6H)-one] | 1 nM
12 | CN1CCN(c2ccc(Nc3ncc4c(=O)n(-c5ncccc5Cl)nc(-c5cn(C)cn5)c4n3)cc2)CC1 [Example 343, 6-(3-chloropyridin-2-yl)-8-(1-methyl-1H-imidazol-4-yl)-2-{[4-(4-methylpiperazin-1-yl)phenyl]amino}pyrimido[4,5-d]pyridazin-5(6H)-one] | 6.9 nM
13 | O=c1c2cnc(Nc3ccc(N4CCNCC4)cc3)nc2c(-c2nccs2)nn1-c1c(Cl)cccc1Cl [Example 344, 6-(2,6-dichlorophenyl)-2-{[4-(piperazin-1-yl)phenyl]amino}-8-(1,3-thiazol-2-yl)pyrimido[4,5-d]pyridazin-5(6H)-one] | 0.25 nM
14 | O=c1c2cnc(Nc3ccc4c(c3)CNCC43CC3)nc2c(-c2nccs2)nn1-c1c(Cl)cccc1Cl [Example 345, 6-(2,6-dichlorophenyl)-2-(2′,3′-dihydro-1′H-spiro[cyclopropane-1,4′-isoquinolin]-7′-ylamino)-8-(1,3-thiazol-2-yl)pyrimido[4,5-d]pyridazin-5(6H)-one] | 0.34 nM
15 | O=c1c2cnc(Nc3ccc4c(c3)CNCC4)nc2c(-c2nccs2)nn1-c1c(Cl)cccc1Cl [Example 346, 6-(2,6-dichlorophenyl)-2-(1,2,3,4-tetrahydroisoquinolin-7-ylamino)-8-(1,3-thiazol-2-yl)pyrimido[4,5-d]pyridazin-5(6H)-one] | 0.21 nM
16 | O=c1c2cnc(Nc3ccc(N4CCNCC4)cc3)nc2c(-c2nccs2)nn1-c1ncccc1Cl [Example 347, 6-(3-chloropyridin-2-yl)-2-{[4-(piperazin-1-yl)phenyl]amino}-8-(1,3-thiazol-2-yl)pyrimido[4,5-d]pyridazin-5(6H)-one] | 6.5 nM

More lines, now with the values ahead:

Row | Ki | Structure (SMILES)
17 | 1.8 nM | CN1CCN(c2ccc(Nc3ncc4c(=O)n(-c5ncccc5Cl)nc(-c5ccccn5)c4n3)cc2)CC1 [Example 348, 6-(3-chloropyridin-2-yl)-2-{[4-(4-methylpiperazin-1-yl)phenyl]amino}-8-(pyridin-2-yl)pyrimido[4,5-d]pyridazin-5(6H)-one]
18 | 0.5 nM | Cc1nn(-c2ncccc2Cl)c(=O)c2cnc(Nc3ccc4c(c3)CNCC43CC3)nc12 [Example 349, 6-(3-chloropyridin-2-yl)-2-(2′,3′-dihydro-1′H-spiro[cyclopropane-1,4′-isoquinolin]-7′-ylamino)-8-methylpyrimido[4,5-d]pyridazin-5(6H)-one]
19 | 1.8 nM | Cn1cnc(-c2nn(-c3ncccc3Cl)c(=O)c3cnc(Nc4ccc(N5CCNCC5)cc4)nc23)c1 [Example 350, 6-(3-chloropyridin-2-yl)-8-(1-methyl-1H-imidazol-4-yl)-2-{[4-(piperazin-1-yl)phenyl]amino}pyrimido[4,5-d]pyridazin-5(6H)-one]
20 | 1.1 nM | Cc1nn(-c2ncccc2Cl)c(=O)c2cnc(Nc3ccc4c(c3)CN(C)CC43CC3)nc12 [Example 351, 6-(3-chloropyridin-2-yl)-8-methyl-2-[(2′-methyl-2′,3′-dihydro-1′H-spiro[cyclopropane-1,4′-isoquinolin]-7′-yl)amino]pyrimido[4,5-d]pyridazin-5(6H)-one]
21 | 12 nM | Cn1cnc(-c2nn(-c3ncccc3Cl)c(=O)c3cnc(Nc4ccc5c(c4)CNCC54CC4)nc23)c1 [Example 352, 6-(3-chloropyridin-2-yl)-2-(2′,3′-dihydro-1′H-spiro[cyclopropane-1,4′-isoquinolin]-7′-ylamino)-8-(1-methyl-1H-imidazol-4-yl)pyrimido[4,5-d]pyridazin-5(6H)-one]
22 | 16 nM | Cn1cnc(-c2nn(-c3ncccc3Cl)c(=O)c3cnc(Nc4ccc5c(c4)CNCC5)nc23)c1 [Example 353, 6-(3-chloropyridin-2-yl)-8-(1-methyl-1H-imidazol-4-yl)-2-(1,2,3,4-tetrahydroisoquinolin-7-ylamino)pyrimido[4,5-d]pyridazin-5(6H)-one]
23 | 740 nM | CN1CCN(c2ccc(Nc3ncc4c(=O)n(-c5c(Cl)cccc5Cl)nc(-c5nccn5C)c4n3)cc2)CC1 [Example 354, 6-(2,6-dichlorophenyl)-8-(1-methyl-1H-imidazol-2-yl)-2-{[4-(4-methylpiperazin-1-yl)phenyl]amino}pyrimido[4,5-d]pyridazin-5(6H)-one]
24 | 2.4 nM | Cn1ccnc1-c1nn(-c2c(Cl)cccc2Cl)c(=O)c2cnc(Nc3ccc(N4CCNCC4)cc3)nc12 [Example 355, 6-(2,6-dichlorophenyl)-8-(1-methyl-1H-imidazol-2-yl)-2-{[4-(piperazin-1-yl)phenyl]amino}pyrimido[4,5-d]pyridazin-5(6H)-one]
25 | 1 nM | Cn1ccnc1-c1nn(-c2c(Cl)cccc2Cl)c(=O)c2cnc(Nc3ccc4c(c3)CNCC43CC3)nc12 [Example 356, 6-(2,6-dichlorophenyl)-2-(2′,3′-dihydro-1′H-spiro[cyclopropane-1,4′-isoquinolin]-7′-ylamino)-8-(1-methyl-1H-imidazol-2-yl)pyrimido[4,5-d]pyridazin-5(6H)-one]
26 | 0.87 nM | CN1Cc2cc(Nc3ncc4c(=O)n(-c5c(Cl)cccc5Cl)nc(-c5nccn5C)c4n3)ccc2C2(CC2)C1 [Example 357, 6-(2,6-dichlorophenyl)-2-[(2′-methyl-2′,3′-dihydro-1′H-spiro[cyclopropane-1,4′-isoquinolin]-7′-yl)amino]-8-(1-methyl-1H-imidazol-2-yl)pyrimido[4,5-d]pyridazin-5(6H)-one]
27 | 0.47 nM | CN1CCN(c2ccc(Nc3ncc4c(=O)n(-c5c(Cl)cncc5Cl)nc(-c5ccncc5)c4n3)cc2)CC1 [Example 358, 6-(3,5-dichloropyridin-4-yl)-2-{[4-(4-methylpiperazin-1-yl)phenyl]amino}-8-(pyridin-4-yl)pyrimido[4,5-d]pyridazin-5(6H)-one]
28 | 5 nM | CN1Cc2cc(Nc3ncc4c(=O)n(-c5c(Cl)cncc5Cl)nc(-c5cn(C)cn5)c4n3)ccc2C2(CC2)C1 [Example 359, 6-(3,5-dichloropyridin-4-yl)-2-[(2′-methyl-2′,3′-dihydro-1′H-spiro[cyclopropane-1,4′-isoquinolin]-7′-yl)amino]-8-(1-methyl-1H-imidazol-4-yl)pyrimido[4,5-d]pyridazin-5(6H)-one]
